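The compound was tested at five concentrations on cells cultured in 96-well plates, with a 48-hour exposure period. TGI denotes the concentration required for complete inhibition of growth.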
Experiments:
Assay in all cases: growth of human tumour cells (NCI), 48 h
MDA-MB-231 breast = test system: MDA-MB-231 breast
M14 melanoma = test system: M14 melanoma
OVCAR-4 ovarian = test system: OVCAR-4 ovarian
SF-295 CNS = test system: SF-295 CNS
MOLT-4 leukemia = test system: MOLT-4 leukemia
SK-MEL-2 melanoma = test system: SK-MEL-2 melanoma
K-562 leukemia = test system: K-562 leukemia
SW-620 colon = test system: SW-620 colon
HOP-62 NSCLC = test system: HOP-62 NSCLC
CCRF-CEM leukemia = test system: CCRF-CEM leukemia
BT-549 breast = test system: BT-549 breast
UACC-62 melanoma = test system: UACC-62 melanoma
SN12C renal = test system: SN12C renal
A549 NSCLC = test system: A549 NSCLC
SNB-19 CNS = test system: SNB-19 CNS
MDA-N = test system: MDA-N
DU-145 prostate = test system: DU-145 prostate
UO-31 renal = test system: UO-31 renal
HCT-116 colon = test system: HCT-116 colon
NCI-H23 lung = test system: NCI-H23 lung
LOX IMVI melanoma = test system: LOX IMVI melanoma
SK-MEL-5 melanoma = test system: SK-MEL-5 melanoma
NCI-H226 lung = test system: NCI-H226 lung
NCI/ADR-RES ovarian = test system: NCI/ADR-RES ovarian
IGROV1 ovarian = test system: IGROV1 ovarian
NCI-H522 lung = test system: NCI-H522 lung
TK-10 renal = test system: TK-10 renal
OVCAR-5 ovarian = test system: OVCAR-5 ovarian
HS 578T breast = test system: HS 578T breast
ACHN renal = test system: ACHN renal
HL-60(TB) leukemia = test system: HL-60(TB) leukemia
A498 renal = test system: A498 renal
SF-539 CNS = test system: SF-539 CNS
RXF 393 renal = test system: RXF 393 renal
OVCAR-8 ovarian = test system: OVCAR-8 ovarian
MCF7 breast = test system: MCF7 breast
CAKI-1 renal = test system: CAKI-1 renal
HCT-15 colon = test system: HCT-15 colon
UACC-257 melanoma = test system: UACC-257 melanoma
HCC-2998 colon = test system: HCC-2998 colon
HT29 colon = test system: HT29 colon
SR leukemia = test system: SR leukemia
SNB-75 CNS = test system: SNB-75 CNS
SF-268 CNS = test system: SF-268 CNS
PC-3 prostate = test system: PC-3 prostate
HOP-92 NSCLC = test system: HOP-92 NSCLC
RPMI-8226 leukemia = test system: RPMI-8226 leukemia
OVCAR-3 ovarian = test system: OVCAR-3 ovarian
MDA-MB-435 = test system: MDA-MB-435
SK-OV-3 ovarian = test system: SK-OV-3 ovarian
SK-MEL-28 melanoma = test system: SK-MEL-28 melanoma
T-47D breast = test system: T-47D breast
U251 CNS = test system: U251 CNS
NCI-H460 lung = test system: NCI-H460 lung
EKVX NSCLC = test system: EKVX NSCLC
MALME-3M melanoma = test system: MALME-3M melanoma
KM12 colon = test system: KM12 colon
COLO 205 colon = test system: COLO 205 colon
786-0 renal = test system: 786-0 renal

Question: What does the source list for `Cc1cc(C)nc(NS(=O)(=O)c2ccc(Nc3c4ccccc4nc4ccc(C(=O)Nc5ccc(S(N)(=O)=O)cc5)cc34)cc2)n1`?
Answer: TGI (MDA-MB-231 breast): 52.6 µM; TGI (M14 melanoma): > 100 µM; TGI (OVCAR-4 ovarian): > 100 µM; TGI (SF-295 CNS): > 100 µM; TGI (MOLT-4 leukemia): > 100 µM; TGI (SK-MEL-2 melanoma): > 100 µM; TGI (K-562 leukemia): > 100 µM; TGI (SW-620 colon): > 100 µM; TGI (HOP-62 NSCLC): > 100 µM; TGI (CCRF-CEM leukemia): > 100 µM; TGI (BT-549 breast): 73.5 µM; TGI (UACC-62 melanoma): > 100 µM; TGI (SN12C renal): > 100 µM; TGI (A549 NSCLC): > 100 µM; TGI (SNB-19 CNS): > 100 µM; TGI (MDA-N): > 100 µM; TGI (DU-145 prostate): > 100 µM; TGI (UO-31 renal): > 100 µM; TGI (HCT-116 colon): > 100 µM; TGI (NCI-H23 lung): > 100 µM; TGI (LOX IMVI melanoma): > 100 µM; TGI (SK-MEL-5 melanoma): > 100 µM; TGI (NCI-H226 lung): > 100 µM; TGI (NCI/ADR-RES ovarian): > 100 µM; TGI (IGROV1 ovarian): > 100 µM; TGI (NCI-H522 lung): > 100 µM; TGI (TK-10 renal): > 100 µM; TGI (OVCAR-5 ovarian): > 100 µM; TGI (HS 578T breast): > 100 µM; TGI (ACHN renal): > 100 µM; TGI (HL-60(TB) leukemia): > 100 µM; TGI (A498 renal): > 100 µM; TGI (SF-539 CNS): > 100 µM; TGI (RXF 393 renal): > 100 µM; TGI (OVCAR-8 ovarian): > 100 µM; TGI (MCF7 breast): > 100 µM; TGI (CAKI-1 renal): > 100 µM; TGI (HCT-15 colon): > 100 µM; TGI (UACC-257 melanoma): > 100 µM; TGI (HCC-2998 colon): > 100 µM; TGI (HT29 colon): > 100 µM; TGI (SR leukemia): > 100 µM; TGI (SNB-75 CNS): > 100 µM; TGI (SF-268 CNS): > 100 µM; TGI (PC-3 prostate): > 100 µM; TGI (HOP-92 NSCLC): > 100 µM; TGI (RPMI-8226 leukemia): > 100 µM; TGI (OVCAR-3 ovarian): > 100 µM; TGI (MDA-MB-435): > 100 µM; TGI (SK-OV-3 ovarian): > 100 µM; TGI (SK-MEL-28 melanoma): > 100 µM; TGI (T-47D breast): > 100 µM; TGI (U251 CNS): > 100 µM; TGI (NCI-H460 lung): > 100 µM; TGI (EKVX NSCLC): > 100 µM; TGI (MALME-3M melanoma): > 100 µM; TGI (KM12 colon): > 100 µM; TGI (COLO 205 colon): > 100 µM; TGI (786-0 renal): > 100 µM

Question: Which results are given for `O=C(O)c1c2c(cc3c1CC(Cc1ccccc1)C3=O)CCC2` (configuration not stated)?
Answer: TGI (MDA-MB-231 breast): > 100 µM; TGI (M14 melanoma): > 100 µM; TGI (OVCAR-4 ovarian): > 100 µM; TGI (SF-295 CNS): > 100 µM; TGI (MOLT-4 leukemia): > 100 µM; TGI (SK-MEL-2 melanoma): > 100 µM; TGI (K-562 leukemia): > 100 µM; TGI (SW-620 colon): > 100 µM; TGI (HOP-62 NSCLC): > 100 µM; TGI (CCRF-CEM leukemia): > 100 µM; TGI (BT-549 breast): > 100 µM; TGI (UACC-62 melanoma): > 100 µM; TGI (SN12C renal): > 100 µM; TGI (A549 NSCLC): 38 µM; TGI (SNB-19 CNS): > 100 µM; TGI (MDA-N): > 100 µM; TGI (DU-145 prostate): > 100 µM; TGI (UO-31 renal): 30.5 µM; TGI (HCT-116 colon): > 100 µM; TGI (NCI-H23 lung): > 100 µM; TGI (LOX IMVI melanoma): > 100 µM; TGI (SK-MEL-5 melanoma): > 100 µM; TGI (NCI-H226 lung): > 100 µM; TGI (NCI/ADR-RES ovarian): > 100 µM; TGI (IGROV1 ovarian): > 100 µM; TGI (NCI-H522 lung): > 100 µM; TGI (TK-10 renal): > 100 µM; TGI (OVCAR-5 ovarian): > 100 µM; TGI (HS 578T breast): > 100 µM; TGI (ACHN renal): > 100 µM; TGI (HL-60(TB) leukemia): 42.3 µM; TGI (A498 renal): > 100 µM; TGI (SF-539 CNS): > 100 µM; TGI (RXF 393 renal): > 100 µM; TGI (OVCAR-8 ovarian): > 100 µM; TGI (MCF7 breast): > 100 µM; TGI (CAKI-1 renal): > 100 µM; TGI (HCT-15 colon): > 100 µM; TGI (UACC-257 melanoma): > 100 µM; TGI (HCC-2998 colon): > 100 µM; TGI (HT29 colon): > 100 µM; TGI (SR leukemia): > 100 µM; TGI (SNB-75 CNS): > 100 µM; TGI (SF-268 CNS): > 100 µM; TGI (PC-3 prostate): > 100 µM; TGI (HOP-92 NSCLC): > 100 µM; TGI (RPMI-8226 leukemia): > 100 µM; TGI (OVCAR-3 ovarian): > 100 µM; TGI (MDA-MB-435): > 100 µM; TGI (SK-OV-3 ovarian): > 100 µM; TGI (SK-MEL-28 melanoma): > 100 µM; TGI (T-47D breast): > 100 µM; TGI (U251 CNS): > 100 µM; TGI (NCI-H460 lung): > 100 µM; TGI (EKVX NSCLC): > 100 µM; TGI (MALME-3M melanoma): > 100 µM; TGI (KM12 colon): > 100 µM; TGI (COLO 205 colon): > 100 µM; TGI (786-0 renal): > 100 µM

Question: Which results are given for `Cc1ccc(C(=O)N/N=C(\N=Nc2cccc([N+](=O)[O-])c2)c2ccc(N(CCC#N)CCC#N)cc2C)cc1`?
Answer: TGI (MDA-MB-231 breast): > 79.2 µM; TGI (M14 melanoma): > 67.6 µM; TGI (OVCAR-4 ovarian): > 100 µM; TGI (SF-295 CNS): > 92 µM; TGI (MOLT-4 leukemia): > 82.6 µM; TGI (SK-MEL-2 melanoma): > 77.3 µM; TGI (K-562 leukemia): > 100 µM; TGI (SW-620 colon): > 100 µM; TGI (HOP-62 NSCLC): 79.7 µM; TGI (CCRF-CEM leukemia): > 69.2 µM; TGI (BT-549 breast): > 78.5 µM; TGI (UACC-62 melanoma): > 100 µM; TGI (SN12C renal): > 100 µM; TGI (A549 NSCLC): > 100 µM; TGI (SNB-19 CNS): > 100 µM; TGI (MDA-N): > 78.4 µM; TGI (DU-145 prostate): > 100 µM; TGI (UO-31 renal): > 100 µM; TGI (HCT-116 colon): > 74.8 µM; TGI (NCI-H23 lung): > 82.8 µM; TGI (LOX IMVI melanoma): > 100 µM; TGI (SK-MEL-5 melanoma): 28.6 µM; TGI (NCI-H226 lung): > 26.2 µM; TGI (NCI/ADR-RES ovarian): > 95.4 µM; TGI (IGROV1 ovarian): > 100 µM; TGI (NCI-H522 lung): > 100 µM; TGI (TK-10 renal): > 100 µM; TGI (OVCAR-5 ovarian): > 100 µM; TGI (HS 578T breast): > 88.3 µM; TGI (ACHN renal): > 100 µM; TGI (HL-60(TB) leukemia): > 43 µM; TGI (A498 renal): > 81.6 µM; TGI (SF-539 CNS): 58.7 µM; TGI (RXF 393 renal): 60.7 µM; TGI (OVCAR-8 ovarian): > 91.6 µM; TGI (MCF7 breast): > 68.1 µM; TGI (CAKI-1 renal): > 100 µM; TGI (HCT-15 colon): > 100 µM; TGI (UACC-257 melanoma): 52.7 µM; TGI (HCC-2998 colon): > 100 µM; TGI (HT29 colon): > 100 µM; TGI (SR leukemia): > 100 µM; TGI (SNB-75 CNS): 74.1 µM; TGI (SF-268 CNS): > 100 µM; TGI (PC-3 prostate): > 100 µM; TGI (HOP-92 NSCLC): > 100 µM; TGI (RPMI-8226 leukemia): > 100 µM; TGI (OVCAR-3 ovarian): 6.71 µM; TGI (MDA-MB-435): 54.3 µM; TGI (SK-OV-3 ovarian): > 85.2 µM; TGI (SK-MEL-28 melanoma): > 86.3 µM; TGI (T-47D breast): 50.7 µM; TGI (U251 CNS): > 100 µM; TGI (NCI-H460 lung): > 100 µM; TGI (EKVX NSCLC): > 69.4 µM; TGI (MALME-3M melanoma): 18.4 µM; TGI (KM12 colon): 61.6 µM; TGI (COLO 205 colon): 20.9 µM; TGI (786-0 renal): > 100 µM

From PubChem BioAssay (NCI)
